Reference: patent publication US20050075398A1, “Neuroprotectin D1 protects against cellular apoptosis, stroke damage, alzheimer's disease and retinal diseases” (priority 2003, published 2005)

Tests used:
Type in all cases: cell-based, human
ARPE-19 cells [1] = assay: DNA fragmentation by differential sedimentation after 3H-thymidine labeling; conditions: 50 nM; TNF-α 10 ng and H2O2 800 μM for 6-8 h
Protocol: DNA fragmentation assay: Cells (80% confluent) growing in DMEM (10% FBS) in 6-well plates were labeled with 1 μCi ^3H-thymidine per well for 24 h at 37° C. The day-old medium was replaced to remove the unincorporated ^3H-thymidine. Cells were then serum-starved for 1 h and treated with TNFα plus H2O2 for 6-8 h. Cells were harvested, centrifuged at 200×g for 10 min at 4° C. An aliquot of the supernatant was precipitated with 25% TCA, and radioactivity was measured. This represents the amount of ^3H-thymidine released during the oxidative stress induced by TNFα plus H2O2 The cell pellet was solubilized in lysis buffer (0.2% Triton X-100 in 10 mM Tris/EDTA). The intact DNA and fragmented DNA were separated by centrifugation at 13,000×g for 10 min at 4° C. Fragmented DNA was precipitated from the supernatant with 25% TCA. The pellets were resuspended in 1% SDS and radioactivity was measured. This represents the intact DNA in the cells. The amount of DNA fragmentation is expressed as percentage of fragmented DNA over the control, as described in Kim, H. Y., Akbar, M., Lau, A. & Edsall, L. (2000) J. Biol. Chem. 275:35215-35223.
These observations indicate that oxidative stress triggered DNA fragmentation and RPE apoptosis, and that the increase in NPD1 inhibited RPE cell death. […] DNA fragmentation was evaluated after TCA precipitation and expressed as percentage over intact DNA. […]

ARPE-19 cells [2] = assay: ELISA detection of mono- and oligonucleosomes; conditions: 50 nM
Protocol: Assessment of apoptosis by mono- and oligonucleosome analysis: Cells were homogenized in a lysis buffer and 20-μl aliquots were applied on streptavidin-coated 96-well plates. Cells were incubated for 2 h with 80 μl incubation buffer containing the monoclonal antibodies directed against DNA and histones for detection of mono- and oligonucleosomes (Roche Diagnostics Corporation Cat. # 1774425). After the unreacted antibodies were washed away, the immune complexes of DNA-histone-antibodies remain bound to the streptavidin-coated plates, where detection was attained by horseradish-peroxidase reaction.
DNA fragmentation was also detected by ELISA detection of mono- and oligonucleosomes in ARPE cells (Roche Diagnostics Corporation Cat. # 1774425). Cells were homogenized in a lysis buffer, and 20-μl aliquots were applied on streptavidin-coated 96-well plates. Cells were incubated for 2 h with 80 μl incubation buffer containing the monoclonal antibodies directed against DNA and histones for detection of mono- and oligonucleosomes. After the unreacted antibodies were washed away, the immune complexes of DNA-histone-antibodies remained bound to the streptavidin-coated plates, where detection is obtained through horseradish-peroxidase reaction. Quantitative analysis was performed in a Spectramax-250 (Molecular Devices) spectrophotometer.

B94 gene expression = assay: HGU133 GeneChip DNA array in HN cells: B94; conditions: Aβ42 25 μM, DHA 50 nM or NPD1 50 nM, 18 h, nsc = no significant change
Text: RNA Isolation and Spectral Quality. Brain tissues were rapidly processed, and total RNA was extracted using Trizol reagent (Invitrogen, Carlsbad, Calif.). Total RNA quality and abundance were profiled using RNA Nano LabChips (Caliper Technologies, Mountainview, Calif.; Agilent Technologies, Palo Alto, Calif.).
Probe Synthesis and GeneChip Hybridization. Biotinylated antisense cRNAs were synthesized from cDNA using the Superscript Choice System (Invitrogen) and Enzo Biorray High Yield RNA Transcript Labeling kits according to the manufacturer's protocols (Affymetrix) and as described in Colangelo, V., Schurr, J., Ball, M. J., Pelaez, R. P., Bazan, N. G., Lukiw, W. J. (2002) J. Neurosci. Res., 70: 462-473; and Lukiw, W. J. (2004) Neurochem. Research, 29: 1287-1297. Probes were hybridized against HU133Av2 GeneChip DNA arrays that interrogate approximately 33,000 full-length […] genes and expressed sequence tag (EST) clusters. […]
GeneChip Data and Statistical Analysis. […] Volcano plots were plotted representing total gene expression patterns as a function of fold-change as compared to expression patterns of age-matched controls as plotted against p, as calculated by an analysis of variance (ANOVA). […] Statistical significance was analyzed using a two-way factorial analysis of variance (p, ANOVA; Statistical Analysis System; SAS Institute, Cary, N.C. ).

CC/C=C\C[C@H](O)\C=C/C=C/C=C/[C@H](O)C/C=C\C/C=C\CCC(=O)O [NPD1, 10,17S-docosatriene]
effect on DNA fragmentation (3H-thymidine) (ARPE-19 cells [1]): inhibited | effect on TNFα/H2O2-induced accumulation of mono- and oligonucleosomes (ARPE-19 cells [2]): inhibited | B94 gene expression, fold change over untreated controls (B94 gene expression): nsc
